Data on one compound can be found in patent US11834430B2, “Compounds useful as inhibitors of isoprenylcysteine carboxyl methyltransferase” (AGENCY FOR SCIENCE, TECHNOLOGY AND RESEARCH, priority 2017, dated 2023).

By pIC50 is commonly meant the IC50 on a negative log10 scale, so that one unit is a factor of ten. The GI50 is the concentration giving 50% growth inhibition. A higher GI50 goes with lower sensitivity of the cells.

The target of experiment [1] is human ICMT (Homo sapiens (Human), UniProt O60725). In words: ICMT biochemical assay (Methyltransferase-Glo). Particulars: ICMT membrane extract from Sf-9 cells; 30 min preincubation, 90 min reaction.
Chain of human ICMT (O60725 whole entry): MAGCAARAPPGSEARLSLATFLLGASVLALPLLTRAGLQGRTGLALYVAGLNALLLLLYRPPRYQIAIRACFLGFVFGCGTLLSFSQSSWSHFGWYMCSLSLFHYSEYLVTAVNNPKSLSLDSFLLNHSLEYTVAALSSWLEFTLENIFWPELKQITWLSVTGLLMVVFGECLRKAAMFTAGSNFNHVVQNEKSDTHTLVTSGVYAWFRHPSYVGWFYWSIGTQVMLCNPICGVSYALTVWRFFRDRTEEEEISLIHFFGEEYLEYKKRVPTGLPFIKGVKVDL
The test system of experiment [2] is MIAPaCa-2 cells. In words: Cell proliferation assay (CellTiter-Glo). The format is cell-based. Particulars: Homo sapiens, MIA PaCa-2, 72 h, 3 days. The procedure:
Cell proliferation assay was performed using CellTiter-Glo Luminescent Cell Viability Assay (Promega) following manufacturer's instructions. The MIAPaCa-2 cells (ATCC) were treated with compounds that were serial diluted in the media (DMEM). Plates were incubated for 3 days at 37° C. in 5% CO2. After 3 days, an equal volume of Cell Titer Glo reagent was added. Plates were rocked on a rotator for 2 hours. 100 μL of each well was transferred to a 96-well opaque plate, and luminescence emitted was measured with the Tecan Safire II.

The subject of experiment [3] is Prelamin A in MIAPaCa-2 cells. In words: Prelamin A accumulation assay (Western blot). In kind it is cell-based. Particulars: various concentrations, 48 hours. As for the experimental part:
The MIAPaCa-2 cells were seeded in 6-well plates. After seeding for 24 hours, the cells were treated with either DMSO or varying concentration of the compound and incubated for 48 hours. The cells were trypsinized and the lysate was extracted with RIPA buffer (Santa Cruz). The total protein concentration of lysate is quantified using the standard Bradford assay (Biorad protein assay, microplate standard assay).
Western blot analysis was performed using antibody against Prelamin A in MIAPaCa cells treated with compound at various concentration for 48 hours. 15.0 μg of cell lysate was run on a SDS-PAGE and then transferred to nitrocellulose membrane. The membrane was then incubated in blocking buffer [PBS (phosphate buffered saline) with 0.1% Tween 20 and 5% dry milk] at room temperature for 1 hour, followed by incubation with Prelamin A antibody (rat monoclonal antibody) at 1:2500 dilution in PBS, 0.1% Tween 20 and 5% dry milk overnight at 4° C., followed by three washes (15 minutes each wash) in PBS, 0.1% Tween 20 on the next day.
The nitrocellulose membrane was then incubated with secondary antibody solution at room temperature for 1 hour, washed three times before developed with enhanced Chemiluminescence (ECL) mixture (Amersham, Aylesbury, United Kingdom), incubated for 5 minutes and exposed using Fluor Chem E System instrument (Protein Simple).
(In western blotting, separated proteins are transferred to a membrane and probed.)

Each structure is given as a SMILES string. pIC50: −log10 of the molar value.

`Cc1nccn1-c1cc(OCCOc2ccc(C#N)cn2)ccn1` [Compound 70, 6-(2-((2-(2-methyl-1H-imidazol-1-yl)pyridin-4-yl)oxy)ethoxy)nicotinonitrile] had a negative logarithm of the IC50 (pIC50) in experiment [1] of 7.57. In experiment [2], this compound came in with a 50% growth inhibitory concentration (GI50) of 5.99 µM. The “Prelamin A accumulation (Western blot)” value in experiment [3] is recorded as “Prelamin A accumulation”.
